In patent US12029724B2, “Method for inhibiting tumor growth” (Eisai R&D Management Co., Ltd., priority 2016, dated 2024):
Structures can show the parent of a compound that is named as a salt.

What was measured:
[1] = system: OMC9 sarcoma (leiomyosarcoma); assay: anti-tumor activity, OMC9 xenograft in nude mice; format: in vivo, human; conditions: OMC9 model, BALB/c nu/nu mice, i.v. day 0 and day 7, start tumor volume 150 mm^3, log RTV, day 7-day 35
Source text: (§1) Cancer cell lines were purchased from the Riken Bioresource Center (RBC, Japan (Ibaraki)), American Type Culture Collection (ATCC, USA (Manassas, Va.)), Deutsche Sammlung von Mikroorganismen and Zellkulturen GmbH (German Collection of Microorganisms and Cell Cultures GmbH: DSMZ, Germany (Braunschweig)), Health Science Research Resource Bank (HSRRB, Japan (Osaka)), and the DS Pharma Biomedical Co., Ltd. (DS-Pharma, Japan (Osaka)), and were kindly donated by the Kyushu Cancer Center, Kagoshima University, and the Cell Resource Center for Biomedical Research of the Institute of Development, Aging, and Cancer of Tohoku University.
(§2) In the tables, the cancer cell lines to which “*” is added in the “acclimation” column were obtained from grown tumors which were formed by subcutaneously inoculating each cancer cell line to a mouse in advance.
(§3) On the initial day of inoculation, the cancer cells were harvested by trypsinization and were washed and suspended using the particular medium. Some of the harvested cancer cells were then mixed with GelTrex (Gibco, #12760-021 or A14132-02) at 1:1. […]
(§4) The tumor size was measured over time with a caliper, and the tumor volume was determined based on the following calculation formula. tumor volume (mm^3)=length (mm)×square of width (mm^2)×½ […]

[2] = system: MES-SA sarcoma (leiomyosarcoma); assay: anti-tumor activity, MES-SA xenograft in nude mice; format: in vivo, human
Source text: as §1, §2, §3, §4

[3] = system: SK-UT-1 sarcoma (leiomyosarcoma); assay: anti-tumor activity, SK-UT-1 xenograft in nude mice; format: in vivo, human; conditions: day 3-day 10
Source text: as §1, §2, §3, §4

[4] = system: SK-LMS-1 sarcoma (leiomyosarcoma); assay: anti-tumor activity, SK-LMS-1 xenograft in nude mice; format: in vivo, human; conditions: SK-LMS-1 model, i.v. day 0 and day 7, start tumor volume 290 mm^3, log RTV, day 2-day 7
Source text: as §1, §2, §3, §4

[5] = system: A673 sarcoma (Ewing sarcoma); assay: anti-tumor activity, A673 xenograft in nude mice; format: in vivo, human; conditions: A673 model, i.v. day 0 and day 7, start tumor volume 220 mm^3, log RTV, day 4-day 18
Source text: as §1, §2, §3, §4

[6] = system: MFE-280 uterine cancer (endometrial cancer); assay: anti-tumor activity, MFE-280 xenograft in nude mice; format: in vivo, human; conditions: MFE-280 model, i.v. day 0 and day 7, start tumor volume 200 mm^3, log RTV, day 4-day 14
Source text: as §1, §2, §3, §4

[7] = system: MFE-296 uterine cancer (endometrial cancer); assay: anti-tumor activity, MFE-296 xenograft in nude mice; format: in vivo, human; conditions: MFE-296 model, i.v. day 0 and day 7, start tumor volume 200 mm^3, log RTV, day 4-day 14
Source text: as §1, §2, §3, §4

[8] = system: HEC-151 uterine cancer (endometrial cancer); assay: anti-tumor activity, HEC-151 xenograft in nude mice; format: in vivo, human; conditions: HEC-151 model, i.v. day 0 and day 7, start tumor volume 220 mm^3, log RTV, day 3-day 14
Source text: as §1, §2, §3, §4

[9] = system: ECC-1 uterine cancer (endometrial cancer); assay: anti-tumor activity, ECC-1 xenograft in nude mice; format: in vivo, human; conditions: ECC-1 model, i.v. day 0 and day 7, start tumor volume 160 mm^3, log RTV, day 4-day 19
Source text: as §1, §2, §3, §4

[10] = system: KB (HeLa) uterine cancer (cervical cancer); assay: anti-tumor activity, KB (HeLa) xenograft in nude mice; format: in vivo, human; conditions: KB (HeLa) model, i.v. day 0 and day 7, start tumor volume 150 mm^3, log RTV, day 7-day 14
Source text: as §1, §2
The KB cells indicated as a cancer cell line in Table 2 were originally thought to be derived from an epithelial cancer. […] In addition, ITS-G supplement (Wako Pure Chemical Industries, Ltd., #090-06741) was used as the ITS. […]
as §4

[11] = system: AsPC-1 pancreatic cancer; assay: anti-tumor activity, AsPC-1 xenograft in nude mice; format: in vivo, human; conditions: AsPC-1 model, i.v. day 0 and day 7, start tumor volume 380 mm^3, log RTV, day 3-day 35
Source text: as §1, §2, §3, §4

[12] = system: BXPC-3 pancreatic cancer; assay: anti-tumor activity, BXPC-3 xenograft in nude mice; format: in vivo, human; conditions: BXPC-3 model, i.v. day 0 and day 7, start tumor volume 120 mm^3, log RTV, day 7-day 21
Source text: as §1, §2, §3, §4

[13] = system: KP-1 pancreatic cancer; assay: anti-tumor activity, KP-1 xenograft in nude mice; format: in vivo, human; conditions: KP-1 model, i.v. day 0 and day 7, start tumor volume 200 mm^3, log RTV, day 3-day 14
Source text: as §1, §2
as §3, with “1:1. Using a 26-gauge syringe needle, these cells were inoculated at a volume of 0.1 mL into the vicinity of the right axillary region of mice (BALB/c nu/nu).” for “1:1.”

[14] = system: K1 thyroid cancer; assay: anti-tumor activity, K1 xenograft in nude mice; format: in vivo, human; conditions: K1 model, i.v. day 0 and day 7, start tumor volume 390 mm^3, log RTV, day 3-day 17
Source text: as §1, §2, §3, §4

[15] = system: U251MG brain tumor (glioblastoma); assay: anti-tumor activity, U251MG xenograft in nude mice; format: in vivo, human; conditions: U251MG model, i.v. day 0 and day 7, start tumor volume 150 mm^3, log RTV, day 5-day 23
Source text: as §1, §2
as §3, with “1:1. Using a 26-gauge syringe needle, these cells were inoculated at a volume of 0.1 mL into the vicinity of the right axillary region of mice (BALB/c nu/nu).” for “1:1.”

[16] = system: PLC/PRF/5 liver cancer (hepatocellular carcinoma); assay: anti-tumor activity, PLC/PRF/5 xenograft in nude mice; format: in vivo, human; conditions: PLC/PRF/5 model, i.v. day 0 and day 7, start tumor volume 180 mm^3, log RTV, day 4-day 18
Source text: as §1, §2, §3, §4

[17] = system: Hs746T stomach cancer; assay: anti-tumor activity, Hs746T xenograft in nude mice; format: in vivo, human; conditions: Hs746T model, i.v. day 0 and day 7, start tumor volume 180 mm^3, log RTV, day 4-day 11
Source text: as §1, §2, §3, §4

[18] = system: UM-UC-3 urothelial cancer (bladder cancer); assay: anti-tumor activity, UM-UC-3 xenograft in nude mice; format: in vivo, human
Source text: as §1, §2, §3, §4

[19] = system: human xenograft models; assay: anti-tumor activity, summary over the 18 human xenograft models; format: in vivo; conditions: in all 18 human xenograft models, RM-ANOVA using log RTV, P<0.05
Source text: as §1, §2, §3, §4

C=C1C[C@@H]2CC[C@@]34C[C@H]5O[C@H]6[C@@H](O3)[C@H]3O[C@H](CC[C@@H]3O[C@H]6[C@H]5O4)CC(=O)C[C@@H]3[C@@H](OC)[C@@H](C[C@H](O)CN)O[C@H]3C[C@H]3O[C@@H](CC[C@@H]1O2)C[C@@H](C)C3=C [E7389, eribulin mesylate]
Yes 1: RM-ANOVA E7389 vs vehicle [1] | RM-ANOVA E7389 vs vehicle ([2]; MES-SA model (Table 2 conditions), i.v. day 0 and day 7, start tumor volume 190 mm^3, log RTV, day 4-day 18) | RM-ANOVA E7389 vs vehicle ([2]; MES-SA model (Table 3 conditions), i.v. day 0 and day 7, start tumor volume 420 mm^3, log RTV, day 3-day 7) | RM-ANOVA E7389 vs vehicle ([3]; SK-UT-1 model (Table 2 conditions), i.v. day 0 and day 7, start tumor volume 260 mm^3, log RTV) | RM-ANOVA E7389 vs vehicle ([3]; SK-UT-1 model (Table 3 conditions), i.v. day 0 and day 7, start tumor volume 290 mm^3, log RTV) | RM-ANOVA E7389 vs vehicle [4] | RM-ANOVA E7389 vs vehicle [5] | RM-ANOVA E7389 vs vehicle [6] | RM-ANOVA E7389 vs vehicle [7] | RM-ANOVA E7389 vs vehicle [8] | RM-ANOVA E7389 vs vehicle [9] | RM-ANOVA E7389 vs vehicle [10] | RM-ANOVA E7389 vs vehicle [11] | RM-ANOVA E7389 vs vehicle [12] | RM-ANOVA E7389 vs vehicle [13] | RM-ANOVA E7389 vs vehicle [14] | RM-ANOVA E7389 vs vehicle [15] | RM-ANOVA E7389 vs vehicle [16] | RM-ANOVA E7389 vs vehicle [17] | RM-ANOVA E7389 vs vehicle ([18]; UM-UC-3 model (Table 2 conditions), i.v. day 0 and day 7, start tumor volume 230 mm^3, log RTV, day 3-day 10) | RM-ANOVA E7389 vs vehicle ([18]; UM-UC-3 model (Table 3 conditions), i.v. day 0 and day 7, start tumor volume 190 mm^3, log RTV, day 3-day 14)
statistically significant: anti-tumor activity compared to the vehicle group [19]
